One experiment concerns the target DGKζ (Homo sapiens (Human), UniProt Q13574). As to the kind of experiment: Biochemical DGK IC50 assay (ADP-Glo, lipid micelle substrate), DGKζ. The settings on record: full length DGKζ 0.5 nM, ATP 140 μM, DAG 80 μM. In a few lines:
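ADP-Glo luminescence measured ADP made in a 1 h room-temperature reaction. The enzyme was Sf9-expressed, purified full-length human DGKζ, and the substrate was DAG/PS micelles. Assay buffer held 50 mM HEPES, 10 mM MgCl2, 0.01 mM CaCl2, 0.1 mM Na3VO4 and 0.01% BSA. IC50 was derived from activity inhibition over a compound concentration series.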
(ADP-Glo turns the ADP formed in a reaction into a luminescent signal.)

The target in a further experiment is DGKα (Homo sapiens (Human), UniProt P23743). As to the kind of experiment: Biochemical DGK IC50 assay (ADP-Glo, lipid micelle substrate), DGKα. Also: full length DGKα 7.5 nM. The settings on record: full length DGKα […], ATP 140 μM, DAG 80 μM. A digest of the protocol: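 Luminescent ADP-Glo detection followed a 1 h room-temperature reaction of full-length DGKα on DAG/PS micelles, in HEPES buffer with 10 mM MgCl2, 0.01 mM CaCl2, 0.1 mM Na3VO4, BSA and Tween-20. IC50 derived from inhibition across increasing compound concentrations.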

Experimental findings from patent US20250346597A1, “CONDENSED HETEROCYCLIC COMPOUNDS AS INHIBITOR OF DIACYLGLYCEROL KINASES” (BEONE MEDICINES I GMBH, priority 2023, published 2025) are described below.

In general, IC50 refers to the concentration that gives 50% inhibition.

A value given as a limit tells only on which side of the number the result lay.

DGKζ, sequence (Q13574 other isoform, or with tags, fused parts or gaps): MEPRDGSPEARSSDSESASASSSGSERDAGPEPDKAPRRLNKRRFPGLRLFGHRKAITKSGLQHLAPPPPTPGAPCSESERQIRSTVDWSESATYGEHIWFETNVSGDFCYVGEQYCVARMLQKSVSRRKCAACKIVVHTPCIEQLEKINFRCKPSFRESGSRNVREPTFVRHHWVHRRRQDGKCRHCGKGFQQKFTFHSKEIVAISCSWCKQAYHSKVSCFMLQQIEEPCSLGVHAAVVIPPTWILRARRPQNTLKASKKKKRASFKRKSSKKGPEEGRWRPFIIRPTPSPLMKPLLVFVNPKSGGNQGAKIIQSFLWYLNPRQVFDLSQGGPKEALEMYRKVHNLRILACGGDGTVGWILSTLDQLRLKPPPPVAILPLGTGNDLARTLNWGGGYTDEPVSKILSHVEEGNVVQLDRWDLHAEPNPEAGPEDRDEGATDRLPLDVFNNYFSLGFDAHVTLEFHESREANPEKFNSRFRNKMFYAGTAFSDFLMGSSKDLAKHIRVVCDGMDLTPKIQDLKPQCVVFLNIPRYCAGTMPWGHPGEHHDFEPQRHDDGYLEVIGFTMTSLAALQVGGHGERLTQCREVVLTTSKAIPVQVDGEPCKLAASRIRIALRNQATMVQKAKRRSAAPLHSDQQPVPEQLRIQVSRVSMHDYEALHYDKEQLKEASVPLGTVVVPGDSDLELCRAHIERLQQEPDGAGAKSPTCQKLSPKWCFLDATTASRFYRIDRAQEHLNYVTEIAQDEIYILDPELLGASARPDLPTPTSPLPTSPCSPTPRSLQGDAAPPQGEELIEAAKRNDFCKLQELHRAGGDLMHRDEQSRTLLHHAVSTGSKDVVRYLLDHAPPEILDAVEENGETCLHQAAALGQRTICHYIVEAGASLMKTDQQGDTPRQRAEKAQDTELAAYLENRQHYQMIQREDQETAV
DGKα, sequence (P23743 whole entry): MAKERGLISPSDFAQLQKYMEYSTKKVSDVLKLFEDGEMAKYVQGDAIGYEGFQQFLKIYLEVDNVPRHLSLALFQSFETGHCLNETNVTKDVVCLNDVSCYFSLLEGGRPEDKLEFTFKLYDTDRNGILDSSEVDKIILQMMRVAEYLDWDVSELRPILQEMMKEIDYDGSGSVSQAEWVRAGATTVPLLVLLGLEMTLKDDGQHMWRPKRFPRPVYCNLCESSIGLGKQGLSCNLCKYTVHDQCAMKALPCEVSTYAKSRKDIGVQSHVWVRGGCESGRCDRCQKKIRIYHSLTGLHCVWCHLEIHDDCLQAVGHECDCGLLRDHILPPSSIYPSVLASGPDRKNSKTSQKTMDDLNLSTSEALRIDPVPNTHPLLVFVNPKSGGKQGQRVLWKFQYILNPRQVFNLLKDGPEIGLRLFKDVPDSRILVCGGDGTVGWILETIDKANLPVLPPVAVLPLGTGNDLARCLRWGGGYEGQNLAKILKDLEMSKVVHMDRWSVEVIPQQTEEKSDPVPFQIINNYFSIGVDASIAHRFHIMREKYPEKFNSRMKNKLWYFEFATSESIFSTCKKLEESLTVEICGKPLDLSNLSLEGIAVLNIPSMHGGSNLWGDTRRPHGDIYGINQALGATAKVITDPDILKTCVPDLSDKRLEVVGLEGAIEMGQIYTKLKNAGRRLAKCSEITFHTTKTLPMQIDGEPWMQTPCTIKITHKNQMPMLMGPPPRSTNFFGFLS

On to `CC[C@H]1CN(C(C)c2ccc3cc(C(F)F)sc3n2)[C@H](CC)CN1c1nc(=O)n(C)c2cn(CC#N)nc12` (single isomer, unassigned) [Compound A148b], for which the half-maximal inhibitory concentration (IC50) against DGKζ came out at 45 nM; at DGKα, 36 nM.
Taken in the same sequence, the figures for `CC[C@H]1CN(C(C)c2ccc3nc(C)cn3n2)[C@H](CC)CN1c1cc(=O)n(C)c2cn(CC#N)nc12` (single isomer, unassigned) [Compound A149a] were 2720 nM and 1110 nM.
Turning to `CC[C@H]1CN(C(C)c2ccc3nc(C)cn3n2)[C@H](CC)CN1c1cc(=O)n(C)c2cn(CC#N)nc12` (single isomer, unassigned) [Compound A149b], the IC50 against DGKζ was found to be 93 nM; at DGKα it was 43 nM.
Taken in the same sequence, the figures for `CC[C@H]1CN(C(C)c2ccc3nc(C)cn3n2)[C@H](CC)CN1c1nc(=O)n(C)c2cn(CC#N)nc12` (single isomer, unassigned) [Compound A150a] were over 10000 nM and 7140 nM.
On the same counts, the results for `CC[C@H]1CN(C(C)c2ccc3nc(C)cn3n2)[C@H](CC)CN1c1nc(=O)n(C)c2cn(CC#N)nc12` (single isomer, unassigned) [Compound A150b] are 267 nM and 124 nM.
Taken in the same sequence, the figures for `CC[C@H]1CN(C(C)c2ccn3ncc(C)c3n2)[C@H](CC)CN1c1cc(=O)n(C)c2cn(CC#N)nc12` (single isomer, unassigned) [Compound A151a] were 4610 nM and 7320 nM.
For the compound `CC[C@H]1CN(C(C)c2ccn3ncc(C)c3n2)[C@H](CC)CN1c1cc(=O)n(C)c2cn(CC#N)nc12` (single isomer, unassigned) [Compound A151b], the IC50 amounted to 7.5 nM against DGKζ and 156 nM at DGKα.
On the same counts, the results for `CC[C@H]1CN(C(C)c2ccn3nc(C)cc3n2)[C@H](CC)CN1c1cc(=O)n(C)c2cn(CC#N)nc12` (single isomer, unassigned) [Compound A152a] are 3090 nM and 1910 nM.
For `CC[C@H]1CN(C(C)c2ccn3nc(C)cc3n2)[C@H](CC)CN1c1cc(=O)n(C)c2cn(CC#N)nc12` (single isomer, unassigned) [Compound A152b], the figures for the IC50 against DGKζ and against DGKα were 65.5 nM and 45 nM, respectively.
As for `CCc1cn2nc(C(C)N3C[C@H](CC)N(c4cc(=O)n(C)c5cn(CC#N)nc45)C[C@H]3CC)ccc2n1` (single isomer, unassigned) [Compound A153a], the IC50 against DGKζ is over 10000 nM; against DGKα, 2720 nM.
For the compound `CCc1cn2nc(C(C)N3C[C@H](CC)N(c4cc(=O)n(C)c5cn(CC#N)nc45)C[C@H]3CC)ccc2n1` (single isomer, unassigned) [Compound A153b], the results for the IC50 at DGKζ and against DGKα were 195 nM and 72 nM, respectively.
On the same counts, the results for `CC[C@H]1CN(C(C)c2ccn3nccc3n2)[C@H](CC)CN1c1cc(=O)n(C)c2cn(CC#N)nc12` (single isomer, unassigned) [Compound A154a] are over 10000 nM and 505 nM.
On to `CC[C@H]1CN(C(C)c2ccn3nccc3n2)[C@H](CC)CN1c1cc(=O)n(C)c2cn(CC#N)nc12` (single isomer, unassigned) [Compound A154b], for which the IC50 was 55 nM against DGKζ and 12 nM at DGKα.
Regarding `Cc1cc2nc(C(C)N3C[C@H](C)N(c4cc(=O)n(C)c5cn(CC#N)nc45)C[C@H]3C)ccc2s1` (single isomer, unassigned) [Compound A155a], the IC50 worked out at 20 nM against DGKζ and 1140 nM against DGKα.
On the same counts, the results for `Cc1cc2nc(C(C)N3C[C@H](C)N(c4cc(=O)n(C)c5cn(CC#N)nc45)C[C@H]3C)ccc2s1` (single isomer, unassigned) [Compound A155b] are 1970 nM and 139 nM.
On to `CC[C@H]1CN(C(C)c2ccn3nc(C)c(C)c3n2)[C@H](CC)CN1c1cc(=O)n(C)c2cn(CC#N)nc12` (single isomer, unassigned) [Compound A156a], for which the IC50 at DGKζ is 5130 nM; against DGKα, over 10000 nM.
`CC[C@H]1CN(C(C)c2ccn3nc(C)c(C)c3n2)[C@H](CC)CN1c1cc(=O)n(C)c2cn(CC#N)nc12` (single isomer, unassigned) [Compound A156b]: the half-inhibitory concentration (IC50) amounted to 23 nM against DGKζ and 310 nM on DGKα.
On the same counts, the results for `CC[C@H]1CN(C(C)c2ccn3nc(C)cc3n2)[C@H](CC)CN1c1nc(=O)n(C)c2cn(CC#N)nc12` (single isomer, unassigned) [Compound A157a] are over 10000 nM and over 10000 nM.
Regarding `CC[C@H]1CN(C(C)c2ccn3nc(C)cc3n2)[C@H](CC)CN1c1nc(=O)n(C)c2cn(CC#N)nc12` (single isomer, unassigned) [Compound A157b], the IC50 amounted to 166 nM against DGKζ and 183 nM against DGKα.
On the same counts, the results for `CC[C@H]1CN(C(C)c2ccn3nc(F)cc3n2)[C@H](CC)CN1c1cc(=O)n(C)c2cn(CC#N)nc12` (single isomer, unassigned) [Compound A158a] are over 10000 nM and 330 nM.
Taken in the same sequence, the figures for `CC[C@H]1CN(C(C)c2ccn3nc(F)cc3n2)[C@H](CC)CN1c1cc(=O)n(C)c2cn(CC#N)nc12` (single isomer, unassigned) [Compound A158b] were 91 nM and 21 nM.
With `CC[C@H]1CN(C(C)c2ccn3nccc3c2)[C@H](CC)CN1c1nc(=O)n(C)c2cn(CC#N)nc12` (single isomer, unassigned) [Compound A159a], the figures for the IC50 on DGKζ and on DGKα were 56 nM and 38 nM, respectively.
Taken in the same sequence, the figures for `CC[C@H]1CN(C(C)c2ccn3nccc3c2)[C@H](CC)CN1c1nc(=O)n(C)c2cn(CC#N)nc12` (single isomer, unassigned) [Compound A159b] were 1120 nM and 40 nM.
Consider `CC[C@H]1CN(C(C)c2ccn3nc(C)c(F)c3n2)[C@H](CC)CN1c1cc(=O)n(C)c2cn(CC#N)nc12` (single isomer, unassigned) [Compound A160a], for which the IC50 against DGKζ was found to be 4120 nM; on DGKα it was 5970 nM.
Taken in the same sequence, the figures for `CC[C@H]1CN(C(C)c2ccn3nc(C)c(F)c3n2)[C@H](CC)CN1c1cc(=O)n(C)c2cn(CC#N)nc12` (single isomer, unassigned) [Compound A160b] were 15 nM and 47 nM.
In the case of `CC[C@H]1CN(C(C)c2ccn3ncc(F)c3n2)[C@H](CC)CN1c1cc(=O)n(C)c2cn(CC#N)nc12` (single isomer, unassigned) [Compound A161a], the IC50 against DGKζ and against DGKα was over 10000 nM throughout.
In the case of `CC[C@H]1CN(C(C)c2ccn3ncc(F)c3n2)[C@H](CC)CN1c1cc(=O)n(C)c2cn(CC#N)nc12` (single isomer, unassigned) [Compound A161b], the results for the IC50 on DGKζ and against DGKα were 18 nM and 32 nM, respectively.
For the compound `CC[C@H]1CN(C(C)c2ccn3nc(C)cc3c2)[C@H](CC)CN1c1cc(=O)n(C)c2cn(CC#N)nc12` (single isomer, unassigned) [Compound A162a], the IC50 is 51 nM at DGKζ and 104 nM against DGKα.
As for `CC[C@H]1CN(C(C)c2ccn3nc(C)cc3c2)[C@H](CC)CN1c1cc(=O)n(C)c2cn(CC#N)nc12` (single isomer, unassigned) [Compound A162b], the IC50 against DGKζ came to 3270 nM; at DGKα, 2430 nM.
On the same counts, the results for `CC[C@H]1CN(C(C)c2ccn3nccc3n2)[C@H](CC)CN1c1nc(=O)n(C)c2cn(CC#N)nc12` (single isomer, unassigned) [Compound A163a] are over 10000 nM and 1900 nM.
Consider `CC[C@H]1CN(C(C)c2ccn3nccc3n2)[C@H](CC)CN1c1nc(=O)n(C)c2cn(CC#N)nc12` (single isomer, unassigned) [Compound A163b], for which the IC50 was 426 nM at DGKζ and 71 nM against DGKα.
On the same counts, the results for `CC[C@H]1CN(C(C)c2ccn3ncc(F)c3n2)[C@H](CC)CN1c1nc(=O)n(C)c2cn(CC#N)nc12` (single isomer, unassigned) [Compound A164a] are over 10000 nM and 7300 nM.
Take `CC[C@H]1CN(C(C)c2ccn3ncc(F)c3n2)[C@H](CC)CN1c1nc(=O)n(C)c2cn(CC#N)nc12` (single isomer, unassigned) [Compound A164b]: the figures for the IC50 on DGKζ and against DGKα were 88 nM and 134 nM, respectively.
For the compound `CC[C@H]1CN(C(C)c2ccn3ncc(F)c3c2)[C@H](CC)CN1c1cc(=O)n(C)c2cn(CC#N)nc12` (single isomer, unassigned) [Compound A165a], the IC50 at DGKζ turned out to be 12 nM; against DGKα, 96 nM.
Taken in the same sequence, the figures for `CC[C@H]1CN(C(C)c2ccn3ncc(F)c3c2)[C@H](CC)CN1c1cc(=O)n(C)c2cn(CC#N)nc12` (single isomer, unassigned) [Compound A165b] were 1580 nM and 2440 nM.
With `CC[C@@H]1CN(c2cc(=O)n(C)c3cn(CC#N)nc23)[C@@H](C)CN1C(C)c1ccn2nccc2n1` (single isomer, unassigned) [Compound A166a], the concentration for half-maximal inhibition (IC50) against DGKζ was 227 nM; against DGKα, 93 nM.
Regarding `CC[C@@H]1CN(c2cc(=O)n(C)c3cn(CC#N)nc23)[C@@H](C)CN1C(C)c1ccn2nccc2n1` (single isomer, unassigned) [Compound A166b], the IC50 at DGKζ is over 10000 nM; on DGKα, 1630 nM.
Taken in the same sequence, the figures for `CC[C@H]1CN(C(C)c2ccc3ncc(Cl)n3n2)[C@H](CC)CN1c1cc(=O)n(C)c2cn(CC#N)nc12` (single isomer, unassigned) [Compound A167a] were over 10000 nM and over 10000 nM.
